Molecules are shown by their SMILES. In brackets after ≈: the same amount, converted by molar mass. Where two headings read alike, the source gives them in different places.

One test concerns C. auris AR Bank #381. In words: MIC determination by in vitro antifungal assay. The test is classed as cell-based, Candida auris. The conditions noted are these: C. auris AR Bank #381. In outline:
(§1)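 RPMI 1640 (L-glutamine, no bicarbonate), 0.165 M MOPS, pH 7.0, 35° C. Inoculum: growing culture set to OD600 0.12 (˜1×10^6 CFU/mL), diluted 1:100. CDC AR Bank isolates.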

Another test has as its system C. auris AR Bank #382. In words: MIC determination by in vitro antifungal assay. The test is classed as cell-based, Candida auris. The conditions noted are these: C. auris AR Bank #382. In outline: as §1
In the next test the test system is C. auris AR Bank #383. Description: MIC determination by in vitro antifungal assay. The format is cell-based, Candida auris. The settings on record: C. auris AR Bank #383. In outline: as §1
For another test, the system named is C. auris AR Bank #385. Description: MIC determination by in vitro antifungal assay. The settings on record: C. auris AR Bank #385. The test is classed as cell-based, Candida auris. In outline: as §1
The subject of another test is C. auris AR Bank #386. In words: MIC determination by in vitro antifungal assay. The test is classed as cell-based, Candida auris. The settings on record: C. auris AR Bank #386. In outline: as §1
A further test concerns C. auris AR Bank #387. Description: MIC determination by in vitro antifungal assay. The format is cell-based, Candida auris. The conditions noted are these: C. auris AR Bank #387. In outline:
as §1

Another test relates to C. auris AR Bank #388. In words: MIC determination by in vitro antifungal assay. The test is classed as cell-based, Candida auris. The conditions noted are these: C. auris AR Bank #388. In outline:
as §1

The next test concerns C. auris AR Bank #389. In words: MIC determination by in vitro antifungal assay. The conditions noted are these: C. auris AR Bank #389. The format is cell-based, Candida auris. In outline:
as §1

Test [1] deals with Candida duobushaemulonii AR Bank #391. Description: MIC determination by in vitro antifungal assay. The test is classed as cell-based. As to the method:
(§2) The antifungal agent amphotericin B (AmB) was purchased from VWR (Radnor PA, USA). AmB was dissolved in DMSO at a final concentration of 5 mg/mL and was stored at −20° C., protected from light. Candida albicans American Type Culture Collection (ATCC) 10231 (strain A), C. albicans ATCC 64124 (B), and C. albicans ATCC MYA-2876 (C) were obtained from Utah State University. C. albicans ATCC 90819 (D), C. albicans ATCC MYA-2310 (E), C. albicans ATCC MYA-1237 (F), C. albicans ATCC MYA-1003 (G), Candida glabrata ATCC 2001 (H), Candida krusei ATCC 6258 (I), Candida parapsilosis ATCC 22019 (J), Cryptococcus neoformans ATCC MYA-895 (M), Aspergillus terreus ATCC MYA-3633 (N), and Aspergillus flavus ATCC MYA-3631 (0) were obtained from the American Type Culture Collection (ATCC; Manassas, VA, USA). Aspergillus nidulans ATCC 38163 (P) was obtained from University of Kentucky. Clinically derived Aspergillus fumigatus NRRL 163 (Q), A. fumigatus NRRL 5109 (R), and A. fumigatus NRRL 6113 (S) were obtained from Northern Regional Research Laboratory (NRRL). Candida auris 384 (K), C. auris 390 (L), and fungal strains 381-400 (including 10 C. auris (AR Bank #381-390), 3 Candida duobushaemulonii (AR Bank #391, AR Bank #392, and AR Bank #394), 2 Candida haemulonii (AR Bank #393 and AR Bank #395), 1 Kodameae ohmeri (AR Bank #396), 1 C. krusei (AR Bank #397), 1 Candida lusitaniae (AR Bank #398), and 2 Saccharomyces cerevisiae strains (AR Bank #399 and AR Bank #400)) were part of a larger fungal library from the AR Bank maintained by the Centers for Disease Control and Prevention (CDC; Atlanta, GA, USA). Filamentous fungi and yeasts were cultivated at 35° C. in RPMI 1640 medium (with L-glutamine, without sodium bicarbonate, Sigma-Aldrich, St. Louis, MO) buffered to a pH of 7.0 with 0.165 M morpholinepropanesulfonic acid (MOPS) buffer (Sigma-Aldrich). For cytotoxicity assays, HepG2 and the mouse macrophage cell line J774A.1 were obtained from University of Kentucky. The human embryonic kidney cell line, HEK-293, was bought from the ATCC. Mammalian cells were grown in Dulbecco's Modified Eagle's Medium (DMEM) (from VWR) with 10% fetal bovine serum (FBS) (from VWR) and 1% Pen/Strep (from ATCC). Cell lines were cultured at 37° C. with 5% CO2 and passaged by trypsinization with 0.05% trypsin: 0.53 mM EDTA (from Sigma-Aldrich).
(§3) From the actively growing yeast culture, 100 µL were then transferred to 900 μL of RPMI 1640 medium and re-adjusted to achieve OD600 of 0.12 (˜1×10^6 CFU/mL). The cell suspension was further diluted to achieve 1:100 in RPMI 1640 medium.

Test [2] has as its system Candida duobushaemulonii AR Bank #392. In words: MIC determination by in vitro antifungal assay. The test is classed as cell-based. As to the method:
as §2, §3

Test [3] concerns Candida duobushaemulonii AR Bank #394. Description: MIC determination by in vitro antifungal assay. The format is cell-based. As to the method: as §2, §3
The test system of test [4] is Candida haemulonii AR Bank #393. In words: MIC determination by in vitro antifungal assay. The test is classed as cell-based. As to the method: as §2, §3
Test [5] relates to Candida haemulonii AR Bank #395. In words: MIC determination by in vitro antifungal assay. The format is cell-based. As to the method: as §2, §3
The test system of test [6] is Candida krusei AR Bank #397. Description: MIC determination by in vitro antifungal assay. The format is cell-based. The conditions noted are these: Candida strain AR Bank #397. As to the method: as §2, §3
Test [7] concerns Candida lusitaniae AR Bank #398. In words: MIC determination by in vitro antifungal assay. The format is cell-based. The conditions noted are these: Candida strain AR Bank #398. As to the method:
as §2, §3

The test system of test [8] is Kodameae ohmeri AR Bank #396. In words: MIC determination by in vitro antifungal assay. The settings on record: strain AR Bank #396. The format is cell-based. As to the method: as §2, §3
Test [9] concerns Saccharomyces cerevisiae AR Bank #399. Description: MIC determination by in vitro antifungal assay. The test is classed as cell-based. How it is done:
as §2, §3

For test [10], the system named is panel of ten C. auris strains (AR Bank #381-390). In words: MIC determination, summary over the C. auris panel. The test is classed as cell-based, Candida auris. The conditions noted are these: Candidozyma auris; against all ten C. auris strains tested (AR Bank #381-390). In outline:
as §1

Test [11] deals with ten other fungal strains (AR Bank #391-400). In words: MIC determination, summary over ten additional fungal strains. The test is classed as cell-based. The settings on record: read-out: MIC range. How it is done: as §2, §3
Where [12] appears, read: Candidozyma auris, read-out: MIC.
Setting [13] is: Candidozyma duobushaemuli, read-out: MIC.
Setting [14] is: Candidozyma haemuli, read-out: MIC.
The mark [15] stands for this setting: Pichia kudriavzevii, read-out: MIC.
Where [16] appears, read: Clavispora lusitaniae, read-out: MIC.

For the molecule `O=C(NNc1ccc(F)cc1)c1ccccn1` [Compound 2d], the MIC in the test with C. auris AR Bank #381 (setting [12]) worked out at 0.98 µg/mL (≈ 4.24 µM); in the test with C. auris AR Bank #382 (setting [12]) it was 1.95 µg/mL (≈ 8.43 µM); in the test on C. auris AR Bank #383 (setting [12]), 1.95 µg/mL (≈ 8.43 µM); in the test with C. auris AR Bank #385 (setting [12]), 0.98 µg/mL (≈ 4.24 µM); with C. auris AR Bank #386 (setting [12]), 0.49 µg/mL (≈ 2.12 µM); with C. auris AR Bank #387 (setting [12]), 0.98 µg/mL (≈ 4.24 µM). Besides, the MIC in the test on C. auris AR Bank #388 (setting [12]) was determined as 0.98 µg/mL (≈ 4.24 µM); in the test with C. auris AR Bank #389 (setting [12]), 0.49 µg/mL (≈ 2.12 µM); in [1] (setting [13]), 0.49 µg/mL (≈ 2.12 µM); in [2] (setting [13]) it was 0.49 µg/mL (≈ 2.12 µM); in test [3] (setting [13]), 0.24 µg/mL (≈ 1.04 µM); in test [4] (setting [14]), 0.24 µg/mL (≈ 1.04 µM). In addition, the MIC in test [5] (setting [14]) is 0.12 µg/mL (≈ 0.519 µM); in [6] (setting [15]), 0.24 µg/mL (≈ 1.04 µM); in test [7] (setting [16]) it was 1.95 µg/mL (≈ 8.43 µM); in [8] (read-out: MIC), 0.24 µg/mL (≈ 1.04 µM); in test [9] (read-out: MIC), 3.9 µg/mL (≈ 16.9 µM); in [10] it was 0.12 to 7.8 µg/mL (≈ 0.519 to 33.7 µM). The MIC in test [11] lay in the range of 0.06 to 7.8 µg/mL (≈ 0.259 to 33.7 µM).
On to `O=C(NNc1ccc(Cl)cc1)c1ccccn1` [Compound 2e], for which the MIC in the test on C. auris AR Bank #381 is recorded as 1.95 μg/mL^−1; with C. auris AR Bank #382, 3.9 μg/mL^−1; in the test on C. auris AR Bank #383, 1.95 μg/mL^−1; in the test on C. auris AR Bank #385 it was 1.95 μg/mL^−1; in the test with C. auris AR Bank #386, 0.98 μg/mL^−1; with C. auris AR Bank #387, 1.95 μg/mL^−1. Besides, the MIC in the test with C. auris AR Bank #388 was determined as 1.95 μg/mL^−1; with C. auris AR Bank #389, 0.98 μg/mL^−1; in [1], 0.98 μg/mL^−1; in [2], 0.98 μg/mL^−1; in [3], 0.49 μg/mL^−1; in [4], 0.49 μg/mL^−1. The MIC in [5] stood at 0.12 μg/mL^−1; in test [6] it was 0.24 μg/mL^−1; in test [7], 0.98 μg/mL^−1; in [8] it was 0.24 μg/mL^−1; in [9], 0.98 μg/mL^−1.
As for `COc1ccc(NNC(=O)c2ccccn2)cc1` [Compound 2f], the MIC in the test on C. auris AR Bank #381 (setting [12]) amounted to 1.95 µg/mL (≈ 8.02 µM); with C. auris AR Bank #382 (setting [12]), 1.95 µg/mL (≈ 8.02 µM); with C. auris AR Bank #383 (setting [12]), 1.95 µg/mL (≈ 8.02 µM); with C. auris AR Bank #385 (setting [12]), 0.98 µg/mL (≈ 4.03 µM); with C. auris AR Bank #386 (setting [12]), 0.24 µg/mL (≈ 0.987 µM); in the test on C. auris AR Bank #387 (setting [12]), 0.49 µg/mL (≈ 2.01 µM). Further, the MIC in the test on C. auris AR Bank #388 (setting [12]) was found to be 0.49 µg/mL (≈ 2.01 µM); with C. auris AR Bank #389 (setting [12]) it was 0.24 µg/mL (≈ 0.987 µM); in test [1] (setting [13]), 0.98 µg/mL (≈ 4.03 µM); in test [2] (setting [13]) it was 0.98 µg/mL (≈ 4.03 µM); in test [3] (setting [13]), 0.98 µg/mL (≈ 4.03 µM); in [4] (setting [14]), 0.49 µg/mL (≈ 2.01 µM). Besides, the MIC was 0.49 µg/mL (≈ 2.01 µM) in test [5] (setting [14]); 0.49 µg/mL (≈ 2.01 µM) in [6] (setting [15]); 0.98 µg/mL (≈ 4.03 µM) in test [7] (setting [16]); 0.49 µg/mL (≈ 2.01 µM) in [8] (read-out: MIC); 1.95 µg/mL (≈ 8.02 µM) in test [9] (read-out: MIC); 0.12 to 7.8 µg/mL (≈ 0.493 to 32.1 µM) in test [10]. Moreover, the MIC in test [11] fell in the range of 0.06 to 1.95 µg/mL (≈ 0.247 to 8.02 µM).

(Values after US20240425464A1, “Substituted Monohydrazides as Potent Antifungal Agents” (University of Kentucky Research Foundation, priority 2023, published 2024).)
